Results published in patent US20100196355A1, “Immunophilin Ligands and Methods for Modulating Immunophilin and Calcium Channel Activity” (Wyeth, priority 2007, published 2010).
Like-named read-outs stand apart in the source and are kept apart here.

Columns and labels:
Human CD4+ T cells = assay: Immunosuppression assay: IL-2 stimulated CD4+ T-cell proliferation; type: cell-based; conditions: up to 1 μM
Protocol: Human CD4^+ T cells were purified by negative selection from peripheral blood lymphocytes using RosetteSep as per manufacture's instructions (StemCell Technologies, Inc. Vancouver, British Columbia). Tosyl-activated magnetic microspheres (Dynal, Great Neck, N.Y.) were coated with anti-CD3 Ab (1 μg/10^7 microspheres), and anti-CD28Ab ([…]) as described in Blair et al. J. Immunol., 160:12, 1998. […] Protein-coated microspheres were added to purified CD4+T cells (2×10^6cells/mL, ratio 1 bead: 1 cell) and activated for 72 hours in RPMI, 10% fetal calf serum, 2 mM glutamine media. Cells were harvested, washed, and cultured overnight in fresh media and re-stimulated with IL-2 as described in Bennett et al., J. Immunol. 170:711, 2003. […] Seventy-two hours after culture re-stimulation, plates were pulsed with 1 μCi/well tritiated thymidine and incubated for a 6-16 hour period.

[1] = tested on: FKBP52, FKBP25 and FKBP12; assay: Affinity chromatography on Compound 2 matrix (SDS-PAGE); type: binding, human; conditions: protein retained on compound beads vs blank beads
[2] = tested on: Ca2+ channels in cultured rat hippocampal neurons; assay: Whole-cell patch clamp recording of Ca2+ currents in hippocampal neurons; type: cell-based; conditions: 10 μM internal
Protocol: (§1) The whole-cell configuration of the patch-clamp technique was used to record calcium currents from the cells at room temperature using an EPC-9 amplifier (HEKA, Instrutech Corp.) with the acquisition and analysis program Pulse-PulseFit from HEKA (Lambrecht, Germany). Electrodes were fabricated using a P-87 puller (Sutter Instrument). […] The standard bath recording solution is Ca^2+ and Mg^2+ free HBSS (pH 7.4) containing 10 mM HEPES, 10 mM dextrose, and 4 mM BaCl2. Currents were filtered at 3 kHz, and the inward Ca^2+ currents were recorded from cells held at −90 mV with 10 mV depolarizing steps from −80 mV to 60 mV for 50 ms.

[3] = tested on: transient mid-cerebral artery occlusion model for ischemic stroke; conditions: cited from earlier work
cortical neurons = assay: Neurite outgrowth in cortical neurons; type: cell-based, rat
Protocol: Cortical neurons were fixed using 2% paraformaldehyde for 5 min followed by 4% paraformaldehyde for 5 min. Cells were incubated in blocking solution (0.2% Triton-X+1.5% normal goat serum in PBS) followed by primary (anti-neuronal class III β-tubulin (TUJ1) (Covance Innovative Antibodies, Berkeley, Calif.) and secondary antibody (Alexa Fluor 488 goat anti-mouse) (Molecular Probes, Carlsbad, Calif.). Each step was performed at room temperature for 1 hr. Total neurite outgrowth for each condition was analyzed using the Neuronal Profiling Bioapplication on an ArrayScan HCS Reader (Cellomics, Pittsburgh, Pa.).
(§2) Briefly, cortical neuron cultures were prepared from embryonic day 15 (E15) rat embryos (Sprague-Dawley, Charles River Laboratories, Wilmington, Mass.). The embryos were collected, their brains were removed, and the cortices were dissected out in ice-cold phosphate-buffered saline (PBS) without Ca^2+ and Mg^2+. Dissected pieces of cortical tissue were pooled together and transferred to an enzymatic dissociation media containing 20 IU/ml papain in Earle's balanced salt solution (Worthington Biochemical, Freehold, N.J.) and incubated for 30 min at 37° C. After enzymatic dissociation, the papain solution was aspirated and the tissue mechanically triturated with a fire-polished Pasteur pipette in complete media [Neurobasal Medium with B-27 supplement (Gibco, Grand Island, N.Y.), 100 IU/ml penicillin, 100 μg/ml streptomycin, 3.3 μg/ml aphidicolin, 0.5 mM glutamate] containing 2,000 IU/ml DNase and 10-mg/ml ovomucoid protease inhibitor.

His6-tagged FKBP12 = His6-tagged FKBP12 (Homo sapiens, UniProt P62942); assay: [3H]-FK506 binding on Ni-chelated FLASH plate
His6-tagged FKBP12, sequence (P62942 whole entry): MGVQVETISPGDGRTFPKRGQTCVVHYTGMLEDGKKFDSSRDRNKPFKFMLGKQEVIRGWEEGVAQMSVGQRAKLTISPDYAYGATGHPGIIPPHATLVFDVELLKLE
Protocol: Reactions were carried out in triplicate at 25° C. for 30 min. Kd were calculated using methods described by Carreras (Anal. Biochem. 298, 57-61 (2001)).

His6-CACNB1:TGG548TAA = target: T1, His6-CACNB1:TGG548TAA (Homo sapiens, UniProt Q02641); assay: Protein fluorescent quenching; type: binding; conditions: compound 1 μM, protein 0-8 μM
T1 construct: His6 (N); made in house
T1 sequence (Q02641 1-547 limits assumed): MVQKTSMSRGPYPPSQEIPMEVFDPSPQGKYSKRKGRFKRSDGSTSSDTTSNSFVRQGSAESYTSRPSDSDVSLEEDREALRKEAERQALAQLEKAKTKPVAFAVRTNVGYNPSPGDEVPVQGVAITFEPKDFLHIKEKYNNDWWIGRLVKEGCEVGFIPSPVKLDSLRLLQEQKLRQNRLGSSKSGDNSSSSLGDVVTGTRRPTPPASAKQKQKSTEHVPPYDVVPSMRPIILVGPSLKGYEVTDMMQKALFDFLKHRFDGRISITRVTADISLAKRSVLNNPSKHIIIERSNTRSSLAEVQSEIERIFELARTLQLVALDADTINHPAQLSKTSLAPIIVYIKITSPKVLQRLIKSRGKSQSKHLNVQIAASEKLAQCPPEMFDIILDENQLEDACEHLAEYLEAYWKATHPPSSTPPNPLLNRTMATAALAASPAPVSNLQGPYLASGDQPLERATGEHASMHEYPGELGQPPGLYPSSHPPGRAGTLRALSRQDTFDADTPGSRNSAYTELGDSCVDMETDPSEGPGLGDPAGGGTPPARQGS
From the text: The His6-CACNB1: […] were generated from pDEST17-CACNB1 using QuikChange site-directed mutagenesis kit (Stratagene, LaJolla, Calif.). The His6 tagged protein was purified on a Ni-NTA column (Qiagen, Valencia, Calif.). […] J. Biol. Chem. 281, 14961-14970 (2006).

F-11 cells = assay: Neurite outgrowth of F-11 cells (neurofilament ELISA); type: cell-based, rat and mouse hybrid
Protocol: Cells were fixed with 4% paraformaldehyde for 30 min at 37° C. Nonspecific binding was blocked by incubating with PBS containing 0.3% Triton X-100 and 5% fetal bovine serum (FBS) for 45 min. […] After washing, a peroxidase-conjugated anti-mouse secondary antibody (1:1000) was applied for 2 h. After three washes, the peroxidase substrate K-BlueMax was added to the cultures and incubated for 10 min. Optical density was determined at 650 nm.

[4] = tested on: Ca2+ channel in F-11 cells; assay: Whole-cell patch clamp recording of Ca2+ currents in F-11 cells; type: cell-based, rat and mouse hybrid
Protocol: as §1

[5] = tested on: cultured rat cortical neurons; assay: Neuronal survival assay (neurofilament ELISA); type: cell-based; conditions: cultured rat cortical neurons
Protocol: Cultures were fixed for 30 min with 4% paraformaldehyde at 37° C. Nonspecific binding was blocked by incubating with PBS containing 0.3% Triton X-100 and 5% fetal bovine serum (FBS) for 45 min. Cultures were then incubated overnight at 4° C. with an anti-neurofilament (200 kD) monoclonal antibody (1:1000, clone RT-97, Chemicon, Temecula, Calif.). After washing, a peroxidase-conjugated secondary antibody (1:1000, Vector Labs, Burlingame, Calif.) was applied for 2 h. After three washes, the peroxidase substrate K-BlueMax (Neogen, Lexington, Ky.; Young et al., 1999) was added to the cultures and incubated for 10 min on an orbital shaker. The peroxidase substrate is highly soluble in the K-BlueMax solution. Optical density is then readily measured using a Molecular Devices Spectramax Plus colorimetric plate reader at 650
as §2

Structure (SMILES) | inhibition of IL-2 stimulated CD4+ T-cell proliferation (Human CD4+ T cells) | binding to FKBP52, FKBP25 and FKBP12 [1] | inhibition of Ca2+ current ([2]; N-type Ca2+ channels blocked, after 10 min) | inhibition of the remaining Ca2+ current ([2]; both N- and L-type Ca2+ channels blocked) | reduction of infarct volume ([3]; 10 mg/kg) [%] | reduction of infarct volume ([3]; 30 mg/kg) [%] | neurite outgrowth in cortical neurons (cortical neurons) | Kd (His6-tagged FKBP12) [nM] | protein fluorescent quenching (His6-CACNB1:TGG548TAA) | neurite outgrowth in F-11 cells (F-11 cells) | neurofilament content, higher than 50 μM or no compound control (F-11 cells; 5 μM, 96 hrs) | Ca2+ current density ([4]; 5 μM in the bath for 2 hrs) | decrease of Ca2+ current density vs vehicle ([4]; 5 μM in the bath for 2 hrs) [%] | whole-cell Ca2+ currents, short bath application ([4]; 10 min application) | reduction of Ca2+ current ([4]; internal application 10 μM, within 10 min, cells responding to BAY-K5552 (L-type)) | reduction of Ca2+ current ([4]; internal application, cells responding to ωCTX MVIIA (N-type)) | neuronal survival, neurofilament ELISA [5]
CO[C@H]1C[C@@H]2CC[C@@H](C)[C@@](O)(O2)C(=O)C(=O)N2CCCCC2C(=O)O[C@H]([C@H](C)C[C@@H]2CC[C@@H](O)[C@H](OC)C2)CC(=O)[C@H](C)/C=C(\C)[C@@H](O)[C@@H](OC)C(=O)[C@H](C)C[C@H](C)C2CC[C@H](/C=C/1C)ON2c1ccccc1 (some centres unmarked) [Rapamycin analogue II, 9,27-dihydroxy-3-{2-[4-hydroxy-3-methoxycyclohexyl]-1-methylethyl}-10,21-dimethoxy-6,8,12,14,20,26-hexamethyl-37-phenyl-4,9,10,12,13,14,15,16,17,18,21,22,23,24,25,26,27,32,33,34,34a-henicosahydro-3H-23,27-epoxy-18,15-(epoxyimino)pyrido[2,1-c][1,4]oxazacyclohentriacontine-1,5,11,28,29(6H, 31H)-pentone] | no detectable inhibition | binds | 74.5+/−8.8 | 21.3+/−4.4% | 24 | 23 |  |  |  |  |  |  |  |  |  |  | 
CO[C@H]1C[C@@H]2CC[C@@H](C)[C@@](O)(O2)C(=O)C(=O)N2CCCCC2C(=O)O[C@H]([C@H](C)C[C@@H]2CC[C@@H](O)[C@H](OC)C2)CC(=O)[C@H](C)/C=C(\C)[C@@H](O)[C@@H](OC)C(=O)[C@H](C)C[C@H](C)C2C=C[C@H](/C=C/1C)ON2c1ccccc1 (some centres unmarked) [Rapamycin analogue I, 9,27-dihydroxy-3-{2-[4-hydroxy-3-methoxycyclohexyl]-1-methylethyl}-10,21-dimethoxy-6,8,12,14,20,26-hexamethyl-37-phenyl-4,9,10,12,13,14,15,18,21,22,23,24,25,26,27,32,33,34,34a-nonadecahydro-3H-23,27-epoxy-18,15-(epoxyimino)pyrido[2,1-c][1,4]oxazacyclohentriacontine-1,5,11,28,29(6H, 31H)-pentone] |  |  |  |  |  |  | promote neurite outgrowth | 4.7 ± 0.4 | linear dose response curve | promote neurite outgrowth | 4-5 fold | 3.2+/−0.3 pA/pF | 49 | not affected | 46+/−1.8% | No significant current reduction | promote neuronal survival
